Data from ChEMBL document CHEMBL1201862, “PubChem BioAssay data set” (2004).
Active and inactive are the calls of the source.

What was measured:
[1] = biological target: T1, Tyrosine-protein phosphatase non-receptor type 7 (Homo sapiens, UniProt P35236); assay: HePTP tyrosine phosphatase activity blockers – biochemical, absorbance, leukemia target, primary screen (AID 521); format: functional
T1 sequence (P35236 whole entry): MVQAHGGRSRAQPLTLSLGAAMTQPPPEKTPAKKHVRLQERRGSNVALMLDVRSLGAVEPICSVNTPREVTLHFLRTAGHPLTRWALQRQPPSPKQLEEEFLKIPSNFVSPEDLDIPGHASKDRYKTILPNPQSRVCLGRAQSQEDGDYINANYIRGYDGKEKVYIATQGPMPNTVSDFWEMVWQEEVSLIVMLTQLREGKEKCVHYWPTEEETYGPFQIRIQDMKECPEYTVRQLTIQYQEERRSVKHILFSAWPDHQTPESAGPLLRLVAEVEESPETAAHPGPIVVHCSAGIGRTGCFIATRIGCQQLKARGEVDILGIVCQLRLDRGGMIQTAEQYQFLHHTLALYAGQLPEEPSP

[2] = biological target: Sphingosine 1-phosphate receptor 2 (Homo sapiens, UniProt O95136); assay: Dose Response Cell Based Assay for Agonists of the S1P2 Receptor. [Related pubchem assays: 729, 736, 843 ]; format: functional
[3] = test system: HEK293; assay: viability loss in HEK293T cells – cell-based, ATP luminescence, cherry-pick samples, cytotoxicity control, dose response (AID 687005); format: functional; conditions: Homo sapiens;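 further: cells exposed to compound for 48 hours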
[4] = HEK293 Cytotoxicity Assay Measured in Cell-Based System Using Plate Reader - 7071-01_Inhibitor_Dose_CherryPick_Activity_Set2.; format: functional
[5] = biological target: Large T antigen (Simian virus 40, UniProt P03070); format: functional, Betapolyomavirus macacae;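 further: Confirmatory-stage PubChem screen for compounds that inhibit SV40 T antigen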
[6] = biological target: Bifunctional protein GlmU (Mycobacterium tuberculosis, UniProt P9WMN3); assay: Inhibitors of Mycobacterial Glucosamine-1-phosphate acetyl transferase (GlmU). Secondary screen.; parameters: species or system Mycobacterium tuberculosis H37Rv
[7] = biological target: 1-phosphatidylinositol 4,5-bisphosphate phosphodiesterase gamma-1 (Homo sapiens, UniProt P19174); assay: Counterscreen for inhibitors of phospholipase C isozymes (PLC-B3): Fluorescence-based biochemical high throughput dose response assay to identify inhibitors of phospholipase C isozymes (PLC-gamma1).
[8] = biological target: 1-phosphatidylinositol 4,5-bisphosphate phosphodiesterase beta-3 (Homo sapiens, UniProt Q01970); assay: Fluorescence-based biochemical high throughput dose response assay to identify inhibitors of phospholipase C isozymes (PLC-B3).
[9] = biological target: E3 ubiquitin-protein ligase Mdm2 (Homo sapiens, UniProt Q00987); assay: MDM2-luc reporter signal enhancers, multi-concentration potency testing, MDM2 ubiquitin-protein ligase inhibitor program, whole-cell format, luminescence detection, 384-well microplate (AID 1394); format: functional;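 further: MDM2 E3 inhibitors raise luminescence so EC50 is for signal enhancement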
[10] = biological target: T2, Streptokinase A (Streptococcus pyogenes serotype M1, UniProt P10520); assay: viability-normalized secreted streptokinase activity reduction – plasminogen activation absorbance, OD405, dose response (AID 1914); format: functional, Streptococcus pyogenes M1 GAS;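 further: secreted streptokinase activity via plasminogen activation per viability signal from cell pellet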
T2 sequence (P10520 whole entry): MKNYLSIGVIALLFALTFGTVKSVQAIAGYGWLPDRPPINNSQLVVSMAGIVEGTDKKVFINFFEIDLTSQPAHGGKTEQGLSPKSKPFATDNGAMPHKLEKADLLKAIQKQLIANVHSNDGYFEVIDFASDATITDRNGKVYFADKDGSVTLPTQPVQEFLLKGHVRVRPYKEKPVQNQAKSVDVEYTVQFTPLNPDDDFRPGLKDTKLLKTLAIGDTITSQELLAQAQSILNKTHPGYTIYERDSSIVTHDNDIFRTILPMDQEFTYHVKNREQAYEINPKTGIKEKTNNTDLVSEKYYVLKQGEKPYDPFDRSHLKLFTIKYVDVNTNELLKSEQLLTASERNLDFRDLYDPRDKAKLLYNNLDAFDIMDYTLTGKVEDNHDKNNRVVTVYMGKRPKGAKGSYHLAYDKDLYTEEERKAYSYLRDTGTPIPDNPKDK

[11] = test system: Streptococcus sp. 'group A'; assay: Streptococcus pyogenes SK(-)GAS viability under kanamycin – luminescence, BacTiterGlo, confirmation, counter-screen for streptokinase expression inhibitor project, dose response (AID 1900); format: functional, organism-based
[12] = test system: Streptococcus; assay: GAS UMAA2166 growth inhibition – luminescence, BacTiterGlo, counter-screen for streptokinase expression inhibitor project, dose response (AID 1915); format: functional, organism-based;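 further: potency for reduction of bacterial viability or growth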
[13] = test system: H9c2; assay: cells; format: functional, cell-based; conditions: Rattus norvegicus, H9c2, Myocardium;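 further: confirmatory concentration-response retest of ultra-high-throughput screening hits for modulation of myocardial damage; cell death induced by hydrogen peroxide oxidative stress; compound pretreatment for 60 min then peroxide exposure for 2 h; potency is for protecting the cells against peroxide damage rather than for killing them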
[14] = biological target: Transthyretin (Homo sapiens, UniProt P02766); assay: Luminescence-based cell-based high throughput dose response assay to identify activators of Transthyretin (TTR) transcription.; format: functional
[15] = Late stage counterscreen for inhibitors of Trypanosoma brucei methionyl tRNA synthetase (MetRS): Luminescence-based cell-based high throughput dose response assay to identify compounds that are cytotoxic to Jurkat human T lymphocyte cells.; format: functional
[16] = biological target: T3, Methionyl-tRNA synthetase, putative (Trypanosoma brucei brucei, UniProt Q38C91); format: functional, Trypanosoma brucei brucei strain 927/4 GUTat10.1
[17] = Counterscreen for inhibitors of Trypanosoma brucei methionyl tRNA synthetase (MetRS): Luminescence-based cell-based high throughput dose response assay to identify compounds that are cytotoxic to Jurkat human T lymphocyte cells.; format: functional
[18] = biological target: T3, Methionyl-tRNA synthetase, putative; format: functional, Trypanosoma brucei brucei strain 927/4 GUTat10.1; remark: listed apart in the source

T3 sequence (Q38C91 whole entry): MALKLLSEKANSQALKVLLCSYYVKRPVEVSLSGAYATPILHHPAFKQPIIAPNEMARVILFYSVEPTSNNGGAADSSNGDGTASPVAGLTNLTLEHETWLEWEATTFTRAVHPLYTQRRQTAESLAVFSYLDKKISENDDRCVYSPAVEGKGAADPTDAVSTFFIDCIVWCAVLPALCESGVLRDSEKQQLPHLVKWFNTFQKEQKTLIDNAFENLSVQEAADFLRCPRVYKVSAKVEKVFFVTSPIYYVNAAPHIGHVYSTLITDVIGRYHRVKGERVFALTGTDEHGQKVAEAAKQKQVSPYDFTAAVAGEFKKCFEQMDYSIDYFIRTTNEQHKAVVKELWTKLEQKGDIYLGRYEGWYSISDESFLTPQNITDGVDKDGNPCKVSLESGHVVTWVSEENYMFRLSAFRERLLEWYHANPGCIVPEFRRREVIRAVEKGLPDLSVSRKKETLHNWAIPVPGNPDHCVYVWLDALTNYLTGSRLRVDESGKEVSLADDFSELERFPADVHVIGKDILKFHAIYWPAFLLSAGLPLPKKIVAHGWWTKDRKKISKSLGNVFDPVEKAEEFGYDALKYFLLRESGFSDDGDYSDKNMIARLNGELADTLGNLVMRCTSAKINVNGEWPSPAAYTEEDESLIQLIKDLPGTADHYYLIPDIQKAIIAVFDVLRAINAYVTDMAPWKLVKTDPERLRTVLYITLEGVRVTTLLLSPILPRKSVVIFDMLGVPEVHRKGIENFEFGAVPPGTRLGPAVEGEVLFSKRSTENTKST
E3 ubiquitin-protein ligase Mdm2, sequence (Q00987 whole entry): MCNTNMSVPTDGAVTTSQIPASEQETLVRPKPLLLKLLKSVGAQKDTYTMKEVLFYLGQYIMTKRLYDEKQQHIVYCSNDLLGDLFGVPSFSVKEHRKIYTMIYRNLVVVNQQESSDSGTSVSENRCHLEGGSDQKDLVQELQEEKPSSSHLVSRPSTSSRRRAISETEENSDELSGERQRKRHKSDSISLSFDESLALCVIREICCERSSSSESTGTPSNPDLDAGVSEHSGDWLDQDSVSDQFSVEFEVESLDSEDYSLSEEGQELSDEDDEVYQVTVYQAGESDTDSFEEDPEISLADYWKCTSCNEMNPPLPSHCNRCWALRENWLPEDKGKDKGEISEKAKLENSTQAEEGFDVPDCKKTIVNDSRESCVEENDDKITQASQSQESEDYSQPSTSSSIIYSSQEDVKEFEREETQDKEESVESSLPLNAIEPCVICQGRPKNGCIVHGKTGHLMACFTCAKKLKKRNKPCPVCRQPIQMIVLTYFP
1-phosphatidylinositol 4,5-bisphosphate phosphodiesterase gamma-1, sequence (P19174 whole entry): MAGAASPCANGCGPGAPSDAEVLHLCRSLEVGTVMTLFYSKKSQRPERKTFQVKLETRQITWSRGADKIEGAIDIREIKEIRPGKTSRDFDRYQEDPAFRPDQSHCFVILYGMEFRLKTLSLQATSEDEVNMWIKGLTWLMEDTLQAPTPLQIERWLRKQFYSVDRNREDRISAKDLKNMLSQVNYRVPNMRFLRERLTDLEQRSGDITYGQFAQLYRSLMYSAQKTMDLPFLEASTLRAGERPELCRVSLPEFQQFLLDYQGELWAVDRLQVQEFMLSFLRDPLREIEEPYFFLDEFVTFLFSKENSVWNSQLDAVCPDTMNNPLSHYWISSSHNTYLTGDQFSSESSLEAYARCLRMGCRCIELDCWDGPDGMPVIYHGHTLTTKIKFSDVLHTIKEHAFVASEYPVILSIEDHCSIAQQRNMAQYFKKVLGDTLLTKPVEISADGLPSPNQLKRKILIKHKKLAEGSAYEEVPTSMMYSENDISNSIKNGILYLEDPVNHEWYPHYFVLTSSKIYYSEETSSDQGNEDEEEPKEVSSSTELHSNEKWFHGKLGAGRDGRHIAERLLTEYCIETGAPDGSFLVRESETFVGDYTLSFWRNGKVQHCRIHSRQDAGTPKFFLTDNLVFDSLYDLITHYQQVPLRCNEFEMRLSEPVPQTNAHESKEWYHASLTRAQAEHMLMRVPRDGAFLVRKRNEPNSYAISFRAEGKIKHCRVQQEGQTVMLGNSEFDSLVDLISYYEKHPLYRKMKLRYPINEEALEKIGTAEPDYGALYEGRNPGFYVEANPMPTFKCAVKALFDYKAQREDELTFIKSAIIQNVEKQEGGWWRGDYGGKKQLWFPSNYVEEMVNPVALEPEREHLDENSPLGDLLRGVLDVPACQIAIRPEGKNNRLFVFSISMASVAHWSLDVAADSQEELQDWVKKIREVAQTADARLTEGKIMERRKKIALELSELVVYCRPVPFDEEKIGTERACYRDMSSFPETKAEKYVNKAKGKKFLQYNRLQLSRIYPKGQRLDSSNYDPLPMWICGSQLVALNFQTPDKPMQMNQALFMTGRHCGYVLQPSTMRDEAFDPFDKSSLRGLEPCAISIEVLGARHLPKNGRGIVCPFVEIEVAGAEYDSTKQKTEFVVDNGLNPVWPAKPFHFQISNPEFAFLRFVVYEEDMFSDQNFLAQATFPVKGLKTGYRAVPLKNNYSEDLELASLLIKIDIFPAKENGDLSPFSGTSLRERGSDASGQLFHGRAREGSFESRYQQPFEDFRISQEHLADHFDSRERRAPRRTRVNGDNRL
Large T antigen, sequence (P03070 whole entry): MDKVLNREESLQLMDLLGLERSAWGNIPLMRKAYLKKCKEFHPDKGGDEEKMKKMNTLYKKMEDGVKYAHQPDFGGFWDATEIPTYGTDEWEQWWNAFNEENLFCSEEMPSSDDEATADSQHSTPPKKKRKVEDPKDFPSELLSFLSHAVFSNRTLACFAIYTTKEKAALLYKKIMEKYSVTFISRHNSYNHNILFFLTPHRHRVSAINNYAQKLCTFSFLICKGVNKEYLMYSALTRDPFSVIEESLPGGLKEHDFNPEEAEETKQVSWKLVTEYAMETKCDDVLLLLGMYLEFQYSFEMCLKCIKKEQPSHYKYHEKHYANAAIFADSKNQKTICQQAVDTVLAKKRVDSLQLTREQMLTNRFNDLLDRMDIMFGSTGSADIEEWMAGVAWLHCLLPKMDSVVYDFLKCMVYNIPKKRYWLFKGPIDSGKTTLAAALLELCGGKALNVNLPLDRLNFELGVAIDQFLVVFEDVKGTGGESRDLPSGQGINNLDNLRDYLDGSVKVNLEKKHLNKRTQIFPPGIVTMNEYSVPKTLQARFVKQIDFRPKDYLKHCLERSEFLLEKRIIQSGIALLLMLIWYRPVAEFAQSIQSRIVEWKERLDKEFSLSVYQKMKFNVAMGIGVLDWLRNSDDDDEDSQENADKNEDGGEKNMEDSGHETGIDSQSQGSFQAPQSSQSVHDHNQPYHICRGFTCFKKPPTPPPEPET
1-phosphatidylinositol 4,5-bisphosphate phosphodiesterase beta-3, sequence (Q01970 whole entry): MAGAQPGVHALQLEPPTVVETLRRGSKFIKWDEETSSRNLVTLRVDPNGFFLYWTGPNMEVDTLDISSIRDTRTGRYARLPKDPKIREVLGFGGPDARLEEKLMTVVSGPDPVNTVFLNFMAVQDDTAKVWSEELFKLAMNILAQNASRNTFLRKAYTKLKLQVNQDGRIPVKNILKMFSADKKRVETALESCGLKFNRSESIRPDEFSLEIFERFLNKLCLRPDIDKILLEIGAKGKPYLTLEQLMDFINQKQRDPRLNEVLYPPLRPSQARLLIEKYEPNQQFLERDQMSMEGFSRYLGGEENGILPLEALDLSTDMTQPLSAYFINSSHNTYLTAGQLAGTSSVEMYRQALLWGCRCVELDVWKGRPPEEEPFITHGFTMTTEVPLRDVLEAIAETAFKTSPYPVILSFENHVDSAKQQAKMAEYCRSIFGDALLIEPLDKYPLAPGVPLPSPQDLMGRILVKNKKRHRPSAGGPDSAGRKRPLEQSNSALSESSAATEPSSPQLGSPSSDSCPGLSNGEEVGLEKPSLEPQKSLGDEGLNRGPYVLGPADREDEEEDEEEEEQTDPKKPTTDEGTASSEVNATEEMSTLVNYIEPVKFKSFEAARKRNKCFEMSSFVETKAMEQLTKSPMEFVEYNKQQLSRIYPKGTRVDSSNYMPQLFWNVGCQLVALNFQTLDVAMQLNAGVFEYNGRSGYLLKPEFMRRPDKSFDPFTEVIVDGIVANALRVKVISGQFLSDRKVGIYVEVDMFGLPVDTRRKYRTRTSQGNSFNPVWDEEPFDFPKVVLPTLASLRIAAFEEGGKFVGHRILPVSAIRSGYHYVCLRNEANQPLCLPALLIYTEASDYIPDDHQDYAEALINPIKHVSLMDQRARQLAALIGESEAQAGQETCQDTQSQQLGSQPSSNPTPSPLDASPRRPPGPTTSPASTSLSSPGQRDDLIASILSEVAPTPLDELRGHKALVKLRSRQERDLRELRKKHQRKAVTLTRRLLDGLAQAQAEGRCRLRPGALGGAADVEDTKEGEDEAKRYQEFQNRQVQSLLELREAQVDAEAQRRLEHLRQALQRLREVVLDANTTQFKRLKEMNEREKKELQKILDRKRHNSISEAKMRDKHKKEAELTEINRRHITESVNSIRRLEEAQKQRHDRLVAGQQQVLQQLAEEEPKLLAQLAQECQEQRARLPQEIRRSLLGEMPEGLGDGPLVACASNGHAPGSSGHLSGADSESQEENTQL
Sphingosine 1-phosphate receptor 2, sequence (O95136 whole entry): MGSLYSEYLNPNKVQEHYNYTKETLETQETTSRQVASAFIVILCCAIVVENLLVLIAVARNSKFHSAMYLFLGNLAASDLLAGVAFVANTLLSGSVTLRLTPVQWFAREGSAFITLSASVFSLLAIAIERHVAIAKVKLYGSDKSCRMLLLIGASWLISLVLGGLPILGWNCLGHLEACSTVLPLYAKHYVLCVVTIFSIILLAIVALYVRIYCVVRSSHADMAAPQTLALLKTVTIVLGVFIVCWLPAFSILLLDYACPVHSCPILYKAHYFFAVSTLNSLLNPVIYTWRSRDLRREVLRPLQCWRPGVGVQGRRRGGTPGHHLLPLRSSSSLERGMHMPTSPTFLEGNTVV

With `Cc1ccc(-n2nnc3c(=O)n(CC(=O)NCc4ccco4)cnc32)cc1` the IC50 [1] was > 100 µM (not active).
With `COc1cc2c(cc1OC)C1=C(C#N)CCC(=O)N1CC2` the EC50 [2] was 1.33 µM (active).
With `COc1ccc(-n2cc(CNCCc3nc(C)cc(C)n3)c(-c3ccccc3Cl)n2)cc1` the AC50 [3] was 11.4 µM (active) and the AC50 [4] was 11.4 µM (active).
For `COc1ccc(/C=C2/C(=O)NC(=O)N(Cc3ccco3)C2=O)cc1`, the IC50 [5] was 23.5 µM (active) and the IC50 [6] was 1.79 µM (active).
With `NC(=O)CC(NC(=O)Cc1cccc2ccccc12)c1ccc(N2CCCCCC2)c([N+](=O)[O-])c1` (stereo not drawn) the IC50 [7] was > 122 µM (inactive) and the IC50 [8] was > 122 µM (inactive).
In the case of `Cc1ccc(-c2nc3ccccc3c(=O)n2-c2cccnc2)cc1`, the EC50 [9] is reported as 54.5 µM (not active).
With `CCCNC(=O)c1ccc(N2CCC3(CC2)CC(c2ccccc2)=NO3)c(NC(=O)c2ccco2)c1` the EC50 [10] was > 150 µM (not active), the EC50 [11] was 15.7 µM (active) and the EC50 [12] was 38.2 µM (active). The IC50 [13] was 31 µM (inactive) and the EC50 [14] was > 167 µM (inactive).
For `Clc1ccc(-c2nnc(SCc3nc4ccccc4[nH]3)o2)c(Cl)c1`, the IC50 [15] was > 83.3 µM (inactive), the IC50 [16] was 0.802 µM (active) and the IC50 [17] was 83.3 µM (inactive). The IC50 [18] was 0.401 µM (active).
